Experiment: Henry solubility constant Hcp at 298.15 K (mol/(m3 Pa))
Conditions: reference: Albanese et al. (1987)

| Structure (SMILES) | Henry solubility constant Hcp |
| --- | --- |
| ClCC(Cl)CCl [1,2,3-trichloropropane] | 0.033 |
| CC(Br)CBr (stereo not given) [1,2-dibromopropane] | 0.0053 |
| CC(Cl)CCl (stereo not given) [1,2-dichloropropane] | 0.0049 |
| ClCCCCl [1,3-dichloropropane] | 0.0085 |
| ClCCCCCl [1,4-dichlorobutane] | 0.012 |
| C=C(Cl)CCl [2,3-dichloropropene] | 0.0035 |
| ClC/C=C/CCl [(E)-1,4-dichloro-2-butene] | 0.017 |
| ClC/C=C\CCl [(Z)-1,4-dichloro-2-butene] | 0.01 |
| Cl/C=C\CCl [cis-1,3-dichloropropene] | 0.0042 |
| Cl/C=C/CCl [trans-1,3-dichloropropene] | 0.0056 |

Source: Sander's compilation of Henry's law constants (doi:10.1080/09593338709384529)
